Like-named read-outs stand apart in the source and are kept apart here.
What was measured:
[1] = system: host cell (skeletal myoblasts, bovine embryo skeletal muscle or C2C12); test: Host cell toxicity in the cross-validation assay; type: cell-based; settings: host cells in cross-validation assay, up to 10 µM
Protocol: (§1) Compound cross-validation in T. cruzi infected skeletal myoblasts (bovine embryo skeletal muscle or C2C12 lineage) was performed according to the protocol adapted from Engel and co-authors. Compounds stored as 10 mM stocks in DMSO were freshly diluted immediately prior to use. […] To prepare plates for the assay, skeletal myoblasts cultured in […] flasks were washed once with phosphate buffered saline (PBS) and then incubated with 0.25% trypsin in PBS for 1–3 minutes for detachment. The trypsin solution was removed and myoblasts were released from the flask bottom. Fresh medium was added and cell concentration was determined using a Neubauer hemocytometer. Myoblasts in 50 µl of culture medium were transferred to the clear-bottom wells of black 96-well plates (Greiner Bio-One, #655090) at a density of 1500 cells/well and infected with 50 µl trypomastigote culture at 7500 parasites/well (1∶5 ratio). The cells were allowed to adhere and spread for 24 h in the incubator before the media was removed and 100 µl of fresh medium containing 0, 0.04, 0.12, 0.37, 1.10, 3.30 or 10 µM of test compound was added to each well, followed by 72 h incubation at 37°C in an atmosphere of 5% CO2. Posaconazole was used as a positive control at the same concentrations as the test compounds. The cells were then fixed by adding 100 µl/well of 8% formaldehyde in PBS, resulting in a 4% working concentration of formaldehyde. To stain the nucleus of the host cell and the nucleus and kinetoplast of parasites, cell membranes were first permeabilized by washing once with 100 µl of 0.1% Triton X-100 in PBS, then treated for 1 h with 0.2 µg/ml of the fluorescent DNA dye, 4,6-diamidino-2-phenylindole (DAPI), followed by one wash with PBS. The fixed plates were kept at 4°C and protected from light until images were acquired.
(§2) Plates were allowed to equilibrate to room temperature and images were acquired by the IN Cell Analyzer 2000 (GE Healthcare) with a 20× objective, 5 fields per well, with 350/50 nm and 460/40 nm fluorescent excitation and emission filters. In the absence of drug cytotoxicity, at least 800 cells were imaged and counted per well. The images were processed and analyzed by IN Cell Analyzer Developer 1.6 software. The size parameters used to segment host and parasite organelles were 125 µm^2 for host nucleus, and 1–2 µm^2 for parasite nucleus/kinetoplast. Since DAPI also strongly stains host heterochromatin regions that display as shapes resembling parasites ( Figure 3 ), particles co-localized to host nuclei were excluded from quantification, while parasite aggregates near the host nucleus were counted as infected cells. Numbers of host cells and intracellular amastigotes were determined based on host cell and parasite nucleus and parasite kinetoplast quantification, providing a measure of growth inhibition during the first 72 h of post-infection treatment compared to untreated controls.
^aToxicity was assessed as the highest percentage of host cell growth inhibition caused by compound treatment. Scores are assigned as 1-<20%; 2-21-30%; 3- 31-40%; 4-41-50% and 5->50% growth inhibition.

[2] = system: T. cruzi-infected skeletal myoblasts (intracellular amastigotes); test: Hit cross-validation in T. cruzi-infected mammalian cells (image-based assay); type: cell-based, Trypanosoma cruzi; settings: read-out: EC50 against T. cruzi parasites in HTS assay used to rank order the hits
Protocol: Bovine embryo skeletal muscle cells or mouse C2C12 myoblasts (ATCC#CRL-1772) used in the cross-validation assay, were cultivated respectively in RPMI 1640 medium supplemented with 5% horse serum and Dulbecco's Modified Eagle's Medium H-21 containing 4.5 g/l glucose (DMEM H-21) (Cell Culture Facility, UCSF), supplemented with 5% fetal bovine serum (FBS) (Sigma Chemical Co., St. Louis, MO, USA), 25 mM HEPES, 2 mM L-glutamine, 100 U/ml penicillin, 100 µg/ml streptomycin. T. cruzi CAI-72 trypomastigotes were obtained from supernatant of infected cultures 4 to 7 days post-infection. Cultures were maintained at 37°C in an atmosphere of 5% CO2. To harvest parasites, the supernatant of infected cultures containing released trypomastigotes was collected and centrifuged at 600 rpm for 5 min to remove cell debris; the pellet was then discarded and the trypomastigotes remaining in the media were concentrated by spinning the culture tubes at 3300 rpm for 15 minutes. The parasite pellet was re-suspended in 2–5 ml of fresh media. Trypomastigote concentration was determined using a Neubauer hemocytometer.
as §1
as §2, with “cells.” for “cells. Numbers of host cells and intracellular amastigotes were determined based on host cell and parasite nucleus and parasite kinetoplast quantification, providing a measure of growth inhibition during the first 72 h of post-infection treatment compared to untreated controls.”

T. cruzi CYP51 = target: T1, T. cruzi CYP51 (Trypanosoma cruzi, UniProt Q7Z1V1); test: HTS spectral-mode binding screen, type II difference spectra scored 0-5
T1 construct: had the first 21 residues upstream of K22 replaced with the fragment MAKKKKK; His6 (C); made in house

[3] = Trypanosoma cruzi, Myoblast, 72 h
[4] = spectral mode, four serial dilutions 2 µM to 12.5 µM, 2 µM CYP51
[5] = T. cruzi-infected myoblasts, 72 h treatment
[6] = Trypanosoma cruzi, Myoblast, 72 h, T. cruzi-infected myoblasts, 72 h treatment

T1 sequence (Q7Z1V1 15-481, looked up, natural form): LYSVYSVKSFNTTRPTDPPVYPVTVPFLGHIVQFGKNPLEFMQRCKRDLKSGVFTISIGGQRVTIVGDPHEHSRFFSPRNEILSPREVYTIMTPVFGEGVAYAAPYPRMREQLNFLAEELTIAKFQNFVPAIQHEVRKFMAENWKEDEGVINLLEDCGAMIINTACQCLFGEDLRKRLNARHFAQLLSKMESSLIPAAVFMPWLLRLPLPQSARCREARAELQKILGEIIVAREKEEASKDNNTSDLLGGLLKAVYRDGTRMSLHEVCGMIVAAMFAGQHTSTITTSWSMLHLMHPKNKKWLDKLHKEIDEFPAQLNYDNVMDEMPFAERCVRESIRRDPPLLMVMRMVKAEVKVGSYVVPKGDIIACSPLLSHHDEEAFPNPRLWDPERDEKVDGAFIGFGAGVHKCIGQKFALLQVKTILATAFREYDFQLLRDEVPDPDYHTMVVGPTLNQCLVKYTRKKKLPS

O=C(NCCc1ccncc1)Nc1ccc(Cl)c(Cl)c1 [Compound 20]
Toxicity score (highest percentage of host cell growth inhibition) [1]: 1 (1-<20%)
EC50 [2, 3]: 2550 nM

COc1cccc(/C=C/c2ccncc2)c1OC [Compound 24]
HTS binding score (T. cruzi CYP51; [4]): 2
EC50 [2, 3]: 2980 nM

Cc1ccc(OCCCCCn2ccnc2)cc1C [Compound 4]
Toxicity score (highest percentage of host cell growth inhibition) [1]: 3 (3- 31-40%)
EC50 [2, 5]: 548 nM
EC50 [2, 6]: 550 nM

CCCC/N=C(\S)N1CCn2cccc2C1c1cccnc1 (centres unmarked) [Compound 30]
EC50 [2, 3]: 6340 nM

C/C(=N\OC(=O)c1c(-c2ccccc2Cl)noc1C)c1ccncc1 [Compound 33]
Toxicity score (highest percentage of host cell growth inhibition) [1]: 3 (3- 31-40%)
EC50 [2, 3]: 6780 nM

Brc1ccc(OCCCn2ccnc2)cc1 [Compound 25]
Toxicity score (highest percentage of host cell growth inhibition) [1]: 2 (2-21-30%)
EC50 [2, 6]: 3660 nM

CCO/C(O)=C1/C(C)=NC2=C(C(=O)CC(c3ccccc3)C2)C1c1cccnc1 (centres unmarked) [Compound 28]
HTS binding score (T. cruzi CYP51; type II difference spectra scored 0-5, second highest rated hit compound cluster): 4
EC50 [2, 6]: 5000 nM

CC(C)(C)/C(=C\n1ccnc1)c1ccc(C(F)(F)F)cc1 [Compound 8]
Toxicity score (highest percentage of host cell growth inhibition) [1]: 3 (3- 31-40%)
EC50 [2, 5]: 754 nM
EC50 [2, 6]: 750 nM

Cc1ccc(C)c(OCCCCn2ccnc2)c1 [Compound 17]
HTS binding score (T. cruzi CYP51; [4]): 4
EC50 [2, 6]: 2360 nM

Cc1ccc(/C(=C\n2ccnc2)c2ccccc2)cc1 [Compound 10]
Toxicity score (highest percentage of host cell growth inhibition) [1]: 4 (4-41-50%)
EC50 [2, 5]: 920 nM
EC50 [2, 6]: 950 nM

O=C(Cn1ccnc1)c1ccc(Cl)cc1Cl [Compound 26]
HTS binding score (T. cruzi CYP51; [4]): 2
EC50 [2, 3]: 4530 nM

Cc1ccc(C)c(CN2CCCCC2c2cccnc2)c1 (centres unmarked) [Compound 48]
HTS binding score (T. cruzi CYP51; [4]): 4
EC50 [2, 3]: 8240 nM

COc1cc(NS(=O)(=O)c2ccc(Nc3nc(-c4cccnc4)cs3)cc2)nc(OC)n1 [Compound 177]
HTS binding score (T. cruzi CYP51; [4]): 4

Cc1[nH]c2ccccc2c1C(Nc1cccc(F)c1)c1cccnc1 (centres unmarked) [Compound 88]
HTS binding score (T. cruzi CYP51; [4]): 4

CCc1nc(SCc2cccnc2)c(C#N)c(C(F)(F)F)c1C [Compound 97]
HTS binding score (T. cruzi CYP51; [4]): 5

CCOC(=O)c1c(C)n(-c2ccc(C)cc2)c2ccc(OCC(O)Cn3ccnc3)cc12 (centres unmarked) [Compound 165]
HTS binding score (T. cruzi CYP51; [4]): 4

O=C(NCc1cccnc1)c1cc2nc(-c3ccco3)cc(C(F)(F)Cl)n2n1 [Compound 143]
HTS binding score (T. cruzi CYP51; [4]): 5

O=C(NCc1ccncc1)C(Sc1ccccc1)c1ccccc1 (centres unmarked) [Compound 93]
HTS binding score (T. cruzi CYP51; [4]): 4

CC1=C(C(=O)Nc2cccnc2)C(c2ccc(Cl)cc2)n2nc(CCCO)nc2N1 (centres unmarked) [Compound 160]
HTS binding score (T. cruzi CYP51; [4]): 4

CC(C)c1nnc(N2C(=O)c3oc4ccccc4c(=O)c3C2c2cccnc2)s1 (centres unmarked) [Compound 144]
HTS binding score (T. cruzi CYP51; [4]): 4

Cc1c(C(=O)Nc2ccncc2)sc2nc(-c3ccccc3)cn12 [Compound 92]
HTS binding score (T. cruzi CYP51; [4]): 4

OC1=C2C(=Nc3nc(-c4cccnc4)nn3C2c2ccc(Cl)cc2)CCC1 (centres unmarked) [Compound 128]
HTS binding score (T. cruzi CYP51; [4]): 4

COc1ccc2nc3oc(C(=O)NCc4cccnc4)cc3cc2c1 [Compound 90]
HTS binding score (T. cruzi CYP51; [4]): 5

Cc1ccc2nc(NC(=O)C3CCN(S(=O)(=O)c4cccnc4)CC3)sc2c1 [Compound 152]
HTS binding score (T. cruzi CYP51; [4]): 4

CC1=C(C(=O)Nc2ccccc2)C(c2cccnc2)C(C#N)=C(SCC(=O)Nc2ccc(F)cc2)N1 (centres unmarked) [Compound 184]
HTS binding score (T. cruzi CYP51; [4]): 5

CC(C)(C)Nc1c(-c2ccncc2)nc2ccc(Br)cn12 [Compound 105]
HTS binding score (T. cruzi CYP51; [4]): 4

Cc1ccc(NC(=O)C23CC4CC(C2)CC(n2cncn2)(C4)C3)c(C)c1 [Compound 111]
HTS binding score (T. cruzi CYP51; [4]): 5

CCCCNC(=O)c1cc(-c2ccncc2)nc2ccccc12 [Compound 63]
HTS binding score (T. cruzi CYP51; [4]): 5

Cc1cc(Cl)ccc1OCCCC(=O)NCc1cccnc1 [Compound 77]
HTS binding score (T. cruzi CYP51; [4]): 4

O=C(c1ccc(Cl)cc1Cl)C(c1cccnc1)C(O)C(Cl)(Cl)Cl (centres unmarked) [Compound 151]
HTS binding score (T. cruzi CYP51; [4]): 5

c1cc(-c2nnn(CCOCCn3nnc(-c4ccncc4)n3)n2)ccn1 [Compound 117]
HTS binding score (T. cruzi CYP51; [4]): 4

O=S(=O)(c1ccc(-c2csc(-c3cccnc3)n2)cc1)N1CCCC1 [Compound 121]
HTS binding score (T. cruzi CYP51; [4]): 4

O=C1C2(c3ccccc3)CN3CC1(c1ccccc1)CN(C2)C3c1cccnc1 (centres unmarked) [Compound 130]
HTS binding score (T. cruzi CYP51; [4]): 4

Cc1cc(C=C2C(=O)c3ccccc3C2=O)c(C)n1-c1ccncc1 [Compound 85]
HTS binding score (T. cruzi CYP51; [4]): 4

Cn1c(=O)c2c(nc(NCc3cccnc3)n2Cc2cccc3ccccc23)n(C)c1=O [Compound 161]
HTS binding score (T. cruzi CYP51; [4]): 4

O=C(NCCCn1ccnc1)C1CC(c2cccc(Br)c2)=NO1 (centres unmarked) [Compound 126]
HTS binding score (T. cruzi CYP51; [4]): 4

O=C(c1cc(-c2ccncc2)nc2ccccc12)N1CCCCC1 [Compound 76]
HTS binding score (T. cruzi CYP51; [4]): 5

CC(NC(=O)C12CC3CC(C1)CC(n1cncn1)(C3)C2)C12CC3CC(CC(C3)C1)C2 (centres unmarked) [Compound 148]
HTS binding score (T. cruzi CYP51; [4]): 4

Nc1cc(NC(=O)c2cccc(Cl)c2)cc(Oc2cccnc2)c1 [Compound 100]
HTS binding score (T. cruzi CYP51; [4]): 4

N#CC1=C(N)Oc2nc(SCc3ccc(Cl)cc3)nc(N)c2C1c1cccnc1 (centres unmarked) [Compound 158]
HTS binding score (T. cruzi CYP51; [4]): 4

N=C(NOC(=O)/C=C/c1ccccc1Cl)c1ccncc1 [Compound 60]
HTS binding score (T. cruzi CYP51; [4]): 4

CC1(C)CC(=O)C2=C(C1)c1c(ccc3ccccc13)NC2c1cccnc1 (centres unmarked) [Compound 114]
HTS binding score (T. cruzi CYP51; [4]): 5

Cc1ccc(Cl)cc1-n1ncc2c(NCc3cccnc3)ncnc21 [Compound 112]
HTS binding score (T. cruzi CYP51; [4]): 4

CCc1cc2c(cc3c(=O)n(CC(=O)NCc4cccnc4)ncn32)s1 [Compound 118]
HTS binding score (T. cruzi CYP51; [4]): 4

COc1ccc(NC(=O)Nc2ccc(Cc3ccncc3)cc2)cc1 [Compound 91]
HTS binding score (T. cruzi CYP51; [4]): 5

COc1ccc(CNc2nc3ccccc3c3nc(-c4ccncc4)nn23)cc1 [Compound 132]
HTS binding score (T. cruzi CYP51; [4]): 5

O=C(CCCSc1nc(-c2ccco2)cc(C(F)(F)F)n1)NCc1ccncc1 [Compound 156]
HTS binding score (T. cruzi CYP51; [4]): 4

CCO/C(O)=C1/C(C)=NC2=C(C(=O)CC(c3ccccc3)C2)C1c1cccnc1 (centres unmarked) [Compound 136]
HTS binding score (T. cruzi CYP51; [4]): 4

O=C1C(c2ccncc2)N(CCC2=CCCCC2)C(=O)CN1C1CCCCC1 (centres unmarked) [Compound 131]
HTS binding score (T. cruzi CYP51; [4]): 4

O=C(CCCCCN1C(=O)c2cccc3cccc(c23)C1=O)NCc1cccnc1 [Compound 141]
HTS binding score (T. cruzi CYP51; [4]): 4

COc1cccc(C2C(C(=O)Nc3cccnc3)=C(C)Nc3nc(-c4cccc(C)c4)nn32)c1OC (centres unmarked) [Compound 182]
HTS binding score (T. cruzi CYP51; [4]): 4
